Data as given in paper PMC8845285, “Serotoninergic receptor ligands improve Tamoxifen effectiveness on breast cancer cells” (BMC Cancer, 2022).

Columns and labels:
CTGF = CTGF mRNA levels in Tamoxifen-cultured MCF7 cells, qPCR; assay type: cell-based, human; conditions: Tamoxifen-cultured MCF7, doses able to restore Tamoxifen responsiveness, 72 h
Method: Total RNA was isolated from cells, quantified (NanoDrop spectrophotometer, Life Technologies, Carlsbad, CA, USA) and reverse transcribed according to the manufacturer’s instructions. Semiquantitative PCR and qPCR assays were performed according to manufacturer’s instructions for Bio-Rad T100 thermal cycler and CFX Connect Real Time system (Biorad, Hercules, CA, USA), respectively. Relative gene expression quantification was measured by 2^−ΔΔCt method normalizing for the reference sample using Rps23 (Ribosomal Protein S23) as housekeeping gene.
Fig. 8 Effect of SER79 and SER68 on Tamoxifen-cultured MCF7 cells. MCF7 cells were cultured in presence of Tamoxifen (1 μM) for 10 days. Estrogen-starved MCF7 and Tamoxifen-cultured MCF7 cells (48 h) were (a-c) treated with SER79 (20 μM, 5 μM) or SER68 (40 μ, 20 μM), (b) treated with Tamoxifen (5 μM) in presence of SER79 (20 μM, 5 μM) or SER68 (40 μM, 20 μM). All treatments were carried out in presence of E2 (100 nM) for 72 h. As positive control, the cells were treated with (a-c) E2 alone or (b) E2 in absence or in presence of SER (as indicated, dotted line). a,b Cell viability was assessed by sulforhodamine B assay (see Methods). The results were reported as percentage of viable cells compared to positive control, considered as maximum viability (100%). c mRNA levels of CTGF were determined by qPCR (see Methods and Table 1). […]

MCF10A cells = test: MCF10A non-cancer breast epithelial cell viability, sulforhodamine B assay; assay type: cell-based, human; conditions: 72 h
Method: MCF7 (ER^+, PR^+, HER2^−), SKBR3 (ER^−, PR^+, HER2^+) and MDA-MB231 (ER^−, PR^−, HER2^−) human BC cells and MCF10A non-cancer breast epithelial cells were available in our laboratory. MCF7, SKBR3 and MDA-MB231 cells were cultured in DMEM, supplemented with 10% FBS, 2 mM glutamine, 100 units/ml penicillin and 100 units/ml streptomycin. MCF10A cells were cultured in MEBM, supplemented with 0.4% BPE, 0.1% hEGF, 0.1%, Insulin, 0.1% Hydrocortisone and 0.1% GA-1000. Cultures were maintained in a humidified atmosphere of 95% air and 5% CO2 at 37 °C. Treatment with SER were carried out in culture conditions. […]
Cells were fixed with 50% trichloroacetic acid for at least 2 h at 4 °C, washed with distilled and de-ionized water, air-dryed and stained 30 min with 0.4% sulforhodamine B in 1% acetic acid. […] Cell survival was assessed by optical density determination at 510 nm using a microplate reader.
Fig. 7 Effect of low doses of SER79 and SER68 on MCF7 and MCF10A cells. a Estrogen-starved MCF7 cells (48 h) were treated with Tamoxifen (5 μM) in presence of E2 (100nM) and SER79 (5 μM) or SER68 (20 μM, 5 μM). […] After 72 h, cell viability was assessed by sulforhodamine B assay (see Methods). […] After 72 h, mRNA levels of CTGF were determined by qPCR (see Methods and Table 1). […] After 72 h, cell viability was assessed by sulforhodamine B assay (see Methods). […]

Row | Structure (SMILES) | CTGF levels after SER compared with those in Tamoxifen-responsive MCF7 cells (CTGF) | effect on MCF10A cell viability (MCF10A cells; 20 μM) | effect on MCF10A cell viability (MCF10A cells; 5 μM)
1 | O=C1C2C3C=CC(C3)C2C(=O)N1OCCN1CCN(c2ccc(Cl)c(Cl)c2)CC1 (stereo not shown) [SER68] | significantly lower | No effect was detected on cell viability | –
2 | N#CN=C(NCCCN1CCN(C(c2ccc(F)cc2)c2ccc(F)cc2)CC1)c1ccccn1 [SER79] | similar | – | No effect was detected on cell viability
